{
  "source": "PubChem BioAssay AID1549",
  "about": "(Sanford-Burnham Center for Chemical Genomics, 2009)",
  "note": "Active and inactive are the calls of the source. The rule behind the calls is not given here.",
  "data": [
    {"target": "Influenza A virus M2 proton channel (A/TW/4845/1999 H1N1)", "assay": "M2 proton channel binding, NMR based, influenza A virus H1N1 strain (AID 1549)", "conditions": "NMR binding screen, M2 protein", "values": [
      {"smiles": "CC1=NN2C(=N)CC(=O)N=C2S1", "Kd": "> 4 mM (inactive)"},
      {"smiles": "Cc1cc(C(=O)N2CCOCC2)c(C)o1", "Kd": "> 4 mM (inactive)"},
      {"smiles": "COc1cccc(OC)c1C(=O)N1CCOCC1", "Kd": "> 4 mM (inactive)"},
      {"smiles": "Cc1noc(C)c1CSc1nc2ccccc2[nH]1", "Kd": "> 4 mM (inactive)"},
      {"smiles": "Nc1nc(SCc2ccccc2)ns1", "Kd": "> 4 mM (inactive)"},
      {"smiles": "C[C@H](CCC(=O)O)[C@H]1CCC2C3C(CC[C@@]21C)[C@@]1(C)CC[C@@H](O)C[C@H]1C[C@H]3O", "note": "(some centres not stated)", "Kd": "> 4 mM (inactive)"},
      {"smiles": "Cc1cc2cc3c(C)cc(=O)oc3c(C)c2o1", "Kd": "> 4 mM (inactive)"},
      {"smiles": "CC1(C)CC(NC(=O)/C=C/C(=O)O)CC(C)(C)N1", "Kd": "> 4 mM (inactive)"},
      {"smiles": "Nc1ccc(-c2cnco2)cc1", "Kd": "> 4 mM (inactive)"},
      {"smiles": "Cn1c(=O)c2ccccc2n(Cc2ccccc2F)c1=O", "Kd": "> 4 mM (inactive)"},
      {"smiles": "c1ccn(Cc2ccncc2)c1", "Kd": "> 4 mM (inactive)"},
      {"smiles": "Oc1ccc(C(=S)N2CCCCC2)cc1Cl", "Kd": "> 4 mM (inactive)"},
      {"smiles": "CCCCCCCCCCCC[C@H](C(=O)O)[C@@H](C)C(=O)O", "Kd": "> 4 mM (inactive)"},
      {"smiles": "COc1ccc2c(c1)OCC(Cc1ccc(OC)c(OC)c1)C2=O", "note": "(configuration not stated)", "Kd": "> 4 mM (inactive)"},
      {"smiles": "CC1=CC(=O)NC2C=CC=CC12", "note": "(configuration not stated)", "Kd": "> 4 mM (inactive)"},
      {"smiles": "CCC(C)OC1CCS(=O)(=O)C1", "note": "(configuration not stated)", "Kd": "> 4 mM (inactive)"},
      {"smiles": "COc1ccc2c3c1O[C@H]1C[C@@H](O)C=C[C@@]31CCN(C)C2", "Kd": "> 4 mM (inactive)"},
      {"smiles": "C=C1CCC2[C@](C)(CO)[C@H](O)CC[C@@]2(C)[C@@H]1C/C=C1/C(=O)OC[C@H]1O", "note": "(some centres not stated)", "Kd": "> 4 mM (inactive)"},
      {"smiles": "O=[n+]1c(CO)c(CO)n([O-])c2ccccc21", "Kd": "> 4 mM (inactive)"},
      {"smiles": "CCCSc1nnc2[nH]c(=O)cc(N)n12", "Kd": "> 4 mM (inactive)"},
      {"smiles": "COc1ccc(C(O)c2nccn2C)cc1", "note": "(configuration not stated)", "Kd": "> 4 mM (inactive)"},
      {"smiles": "COc1cc2c3cc1Oc1c(OC)c(OC)cc4c1[C@@H](Cc1cccc(c1)Oc1ccc(c(O)c1)C[C@@H]3N(C)CC2)N(C)CC4", "Kd": "> 4 mM (inactive)"},
      {"smiles": "c1cncc(-c2nnc(-c3cccnc3)nn2)c1", "Kd": "> 4 mM (inactive)"},
      {"smiles": "Nc1cc(=O)[nH]c(SCC(=O)NC2CCCCC2)n1", "Kd": "> 4 mM (inactive)"},
      {"smiles": "NC(=O)C1CCN(CC2CC=CCC2)CC1", "note": "(configuration not stated)", "Kd": "> 4 mM (inactive)"},
      {"smiles": "O=c1cc(O)n(-c2ccc(F)cc2)c(=S)[nH]1", "Kd": "> 4 mM (inactive)"},
      {"smiles": "CC(=O)c1c(C)nc(-c2ccc(F)cc2)n1O", "Kd": "> 4 mM (inactive)"},
      {"smiles": "O=C(NCCO)c1cc2ccccc2c(=O)s1", "Kd": "> 4 mM (inactive)"},
      {"smiles": "CC(=O)Nc1cccc(NC(=O)c2ccco2)c1", "Kd": "> 4 mM (inactive)"},
      {"smiles": "COC(=O)[C@@H]1OC(=O)C2OC23[C@@]1(C)CCC1[C@]2(C)C(C[C@@H](O)[C@]13C)C(C)(C)[C@H](OC(C)=O)C[C@@H]2OC(C)=O", "note": "(some centres not stated)", "Kd": "> 4 mM (inactive)"},
      {"smiles": "Cc1nc(-c2ccc(NS(C)(=O)=O)cc2)cs1", "Kd": "> 4 mM (inactive)"},
      {"smiles": "O=C(c1cnsn1)N1CCN(c2ccccc2)CC1", "Kd": "> 4 mM (inactive)"},
      {"smiles": "COC(=O)[C@H]1[C@H]2C[C@H]3c4[nH]c5ccccc5c4CCN3C[C@H]2CC[C@@H]1O", "Kd": "> 4 mM (inactive)"},
      {"smiles": "OCc1cc(F)cc2c1OCOC2", "Kd": "> 4 mM (inactive)"},
      {"smiles": "CCOC(=O)c1cnn2ccccc12", "Kd": "> 4 mM (inactive)"},
      {"smiles": "CCN1CCn2c1nc(N1CCOCC1)nc2=O", "Kd": "> 4 mM (inactive)"},
      {"smiles": "COc1ccc(-c2noc(-c3ccco3)n2)cc1OC", "Kd": "> 4 mM (inactive)"},
      {"smiles": "O=S1(=O)NC(=NCc2ccco2)c2ccccc21", "Kd": "> 4 mM (inactive)"},
      {"smiles": "O=C1C[C@@H](c2ccccc2)Oc2cc(O)cc(O)c21", "Kd": "> 4 mM (inactive)"},
      {"smiles": "O=C(Cc1c(F)cccc1Cl)Nc1ccncc1", "Kd": "> 4 mM (inactive)"},
      {"smiles": "Cc1cc(=O)oc2cc3c(cc12)OCCO3", "Kd": "> 4 mM (inactive)"},
      {"smiles": "CCc1ccc(C(=O)N2CCCC2)s1", "Kd": "> 4 mM (inactive)"},
      {"smiles": "Nc1ncnc2c1ncn2CCN1CCOCC1", "Kd": "> 4 mM (inactive)"},
      {"smiles": "COCc1c(CN)cnc(C)c1N", "Kd": "> 4 mM (inactive)"},
      {"smiles": "CC(=O)c1cc(C)ccc1O", "Kd": "> 4 mM (inactive)"},
      {"smiles": "Cc1c(C(=O)Nc2ccccn2)oc2ccccc12", "Kd": "> 4 mM (inactive)"},
      {"smiles": "Cn1[nH]c(C(F)(F)F)cc1=O", "Kd": "> 4 mM (inactive)"},
      {"smiles": "CC(=O)Nc1ccc(S(N)(=O)=O)cc1", "Kd": "> 4 mM (inactive)"},
      {"smiles": "O=C(Cn1cnc2ccccc2c1=O)N1CCOCC1", "Kd": "> 4 mM (inactive)"},
      {"smiles": "Cc1cccc(N2CCN(C(=O)c3ccncc3)CC2)c1C", "Kd": "> 4 mM (inactive)"},
      {"smiles": "Cc1nnc(N2CCN(c3ccccc3)CC2)[nH]c1=O", "Kd": "> 4 mM (inactive)"},
      {"smiles": "Cc1cc(C(=O)N2CCN(S(C)(=O)=O)CC2)cs1", "Kd": "> 4 mM (inactive)"},
      {"smiles": "Cc1ccc(C(=O)NCCO)c(Cl)c1", "Kd": "> 4 mM (inactive)"},
      {"smiles": "OCc1ccc2occc2c1", "Kd": "> 4 mM (inactive)"},
      {"smiles": "C=C1CSc2nc(=O)c3c(C)c(C)sc3n21", "Kd": "> 4 mM (inactive)"},
      {"smiles": "NC(=S)CN1CCCC1=O", "Kd": "> 4 mM (inactive)"},
      {"smiles": "CCOC(=O)c1cc2ccccc2oc1=O", "Kd": "> 4 mM (inactive)"}
    ]}
  ]
}
